From patent publication US10471043B2, “Compounds and methods of treating bacterial infections” (ULTUPHARMA AB, priority 2015, dated 2019)
Values after ≈ are worked out from the molar mass of the structure shown. Read-outs that look alike come from different tables or passages of the source.

How the values were obtained:
[1] = test system: Staphylococcus aureus strain LMG15975; assay: MIC by broth micro-dilution, AM3/PBS 1:1; type: cell-based
Procedure: (§1) At first (Table 1), MIC is determined by broth micro-dilution method. The test medium is Antibiotic Medium 3 (AM3; Difco Ltd) mixed with Phosphate Buffered Saline (PBS) in proportions 1:1. Selected MIC values are verified using cation-adjusted Mueller Hinton Broth (MHB; BD). Cell concentration of tested pathogen is adjusted to between 3 and 5×10^5 cells per ml. To verify cell concentration of tested pathogen, viable cell counts are performed directly after each MIC-test by dilution method with PBS as a dilution solvent. Cells are counted on the agar plates with 50% strength Vegetable Peptone Broth (50% VPB; Oxoid Ltd) after 16 to 20 h of incubation at 37° C.
(§2) Cells of pathogen suspended in test medium are distributed to the wells and the plates are incubated for 16 to 20 h at 37° C. Negative controls are wells with the test medium only and positive controls are wells with the pathogen in test medium. The MIC is defined as the lowest concentration of each compound with no visible growth of pathogen.
Example compounds of formula I were examined for antibacterial activity against the Gram-positive bacterium Staphylococcus aureus strain LMG15975 using the above described method (Table 1).

[2] = test system: mupirocin-resistant strains of Staphylococcus aureus; assay: MIC against mupirocin-resistant strains; type: cell-based; conditions: Staphylococcus aureus; all 4 strains (V55, V86, V308, V321); read-out: MIC values for mupirocin
Procedure: as §1, §2

[3] = cited from earlier work
[4] = Cytotoxicity assay, WST-8; conditions: human, HepG2 cells, CC50 (μg/mL)
in vitro = conditions: human, CC50 (μg/mL)
S. aureus = assay: Antimicrobial Susceptibility Test by Broth Microdilution, M07-A9 CLSI; type: cell-based; conditions: Staphylococcus aureus
E. faecalis = assay: as above; type: cell-based; conditions: Enterococcus faecalis
Bacillus cereus = assay: MIC by broth micro-dilution; type: cell-based; conditions: Table 4, read-out: MIC (μg/ml) B. cereus
Procedure: as §1, §2

E. faecium = assay: Antimicrobial Susceptibility Test by Broth Microdilution, M07-A9 CLSI; type: cell-based; conditions: Enterococcus faecium; E. faecium 7, Vancomycin-resistant, Table 5; read-out: MIC
S. epidermidis = assay: as above; type: cell-based; conditions: Staphylococcus epidermidis
A. baumannii = assay: MIC by broth micro-dilution; type: cell-based; conditions: Acinetobacter baumannii, A. baumannii (G−), Table 2; read-out: MIC (μg/ml) A. baumannii
Procedure: as §1, §2

[5] = LMG15975, S. aureus LMG15975, Table 1, read-out: MIC
[6] = LMG15975, S. aureus LMG15975, Table 1, read-out: MIC (μg/ml)
[7] = LMG15975, S. aureus LMG 15975 (SLU), Methicillin-resistant, Table 5, read-out: MIC (μg/mL)
[8] = ATCC29213, S. aureus ATCC29213, QC strain, Table 5
[9] = S. aureus 7280, Methicillin-resistant
[10] = S. aureus MO17, Methicillin-sensitive, Table 5
[11] = S. aureus PICI, Methicillin-resistant, Table 5
[12] = E. faecalis 14, Vancomycin-resistant
[13] = E. faecalis 24, Vancomycin-sensitive, Table 5
[14] = S. epidermis RO7, Methicillin-sensitive, Table 5
[15] = S. epidermis Staph 1, Methicillin-resistant
[16] = S. epidermis TA12, Methicillin-resistant, Table 5
[17] = LMG15975, S. aureus (G+), Table 2, read-out: MIC (μg/ml) S. aureus

Row | Compound | MIC [1, 5] | MIC [1, 6] | CC50 at 48 h ([4]; HepG2, 48 hours, Table 1) | also measured
1 | CCCC(=O)C1=C(O)CC(CC2CCCC2)OC1=O (stereo not shown) [Ex. 22, 3-butyryl-6-(cyclopentylmethyl)-4-hydroxy-5,6-dihydro-2H-pyran-2-one] | 22 to 45 µM | 6 to 12 µg/mL | – | –
2 | N#CCCCCCCCC1CC(O)=C(C(=O)CC2CCCCC2)C(=O)O1 (stereo not shown) [Ex. 28, 8-(5-(2-cyclohexylacetyl)-4-hydroxy-6-oxo-3,6-dihydro-2H-pyran-2-yl)octanenitrile] | > 55 µM | > 20 µg/mL | – | –
3 | COCCCCCCC1CC(O)=C(C(=O)CC2CCCC2)C(=O)O1 (stereo not shown) [Ex. 23, 3-(2-cyclopentylacetyl)-4-hydroxy-6-(6-methoxyhexyl)-5,6-dihydro-2H-pyran-2-one] | 29 to 59 µM | 10 to 20 µg/mL | – | –
4 | C/C(=C\C(=O)OCCCCCCCCC(=O)O)C[C@@H]1OC[C@H](C[C@@H]2O[C@H]2[C@@H](C)[C@H](C)O)[C@@H](O)[C@H]1O [mupirocin, reference compound] | – | – | – | MIC [2]: > 256 µg/mL
5 | N[C@@H](Cc1ccccc1)C(=O)O [L-Phenylalanine] | – | – | – | absorption in man (%) ([3]; reference markers for Caco-2 assay): 100%
6 | CCCCCCCCCC1CC(O)=C(C(=O)CC(C)C)C(=O)O1 (stereo not shown) [Ex. 15, 4-hydroxy-3-(3-methylbutanoyl)-6-nonyl-5,6-dihydro-2H-pyran-2-one] | 0.6 to 1.2 µM | 0.2 to 0.4 µg/mL | 21 µM | –
7 | OC[C@@H](O)[C@@H](O)[C@H](O)[C@H](O)CO [Mannitol] | – | – | – | absorption in man (%) ([3]; in vivo): 16%
8 | CCCCCCCCCC1CC(O)=C(C(=O)CCOC)C(=O)O1 (stereo not shown) [Ex. 24, 4-hydroxy-3-(3-methoxypropanoyl)-6-nonyl-5,6-dihydro-2H-pyran-2-one] | 6.1 to 15 µM | 2 to 5 µg/mL | – | –
9 | CCCC(=O)C1=C(O)CC(CCCCCCCC#N)OC1=O (stereo not shown) [Ex. 19, 8-(5-butyryl-4-hydroxy-6-oxo-3,6-dihydro-2H-pyran-2-yl)octanenitrile] | 133 to 166 µM | 40 to 50 µg/mL | – | CC50 at 48 h (in vitro): > 100 µM
10 | CCCCCCCCCCCC1CC(O)=C(C(=O)CCCC)C(=O)O1 (stereo not shown) [Ex. 17, 4-hydroxy-3-pentanoyl-6-undecyl-5,6-dihydro-2H-pyran-2-one] | 0.3 to 0.6 µM | 0.1 to 0.2 µg/mL | 12 µM | MIC [1, 7]: 0.1 to 0.2 µg/mL; MIC (S. aureus; [8]): 16 µg/mL (≈ 45.4 µM); MIC (S. aureus; [9]): 8 µg/mL (≈ 22.7 µM); MIC (S. aureus; [10]): 4 µg/mL (≈ 11.3 µM); MIC (S. aureus; [11]): 8 µg/mL (≈ 22.7 µM); MIC (E. faecalis; [12]): 1 µg/mL (≈ 2.84 µM); MIC (E. faecalis; [13]): 1 µg/mL (≈ 2.84 µM); MIC (Bacillus cereus): ≤ 1 µg/mL; CC50 at 48 h ([4]; HepG2, Table 5): 12 µM; MIC (E. faecium): 1 µg/mL (≈ 2.84 µM); MIC (S. epidermidis; [14]): 0.5 µg/mL (≈ 1.42 µM); MIC (S. epidermidis; [15]): 0.5 µg/mL (≈ 1.42 µM); MIC (S. epidermidis; [16]): 0.5 µg/mL (≈ 1.42 µM)
11 | CCCCCCCCCCCC1CC(O)=C(C(=O)CCC)C(=O)O1 (stereo not shown) [Ex. 16, 3-butyryl-4-hydroxy-6-undecyl-5,6-dihydro-2H-pyran-2-one] | 0.3 to 0.6 µM | 0.1 to 0.2 µg/mL | – | MIC [1, 17]: 0.1 to 0.2 µg/mL; MIC [1, 7]: 0.1 to 0.2 µg/mL; CC50 at 48 h (in vitro): 19 µM; MIC (S. aureus; [8]): 4 µg/mL (≈ 11.8 µM); MIC (S. aureus; [9]): 8 µg/mL (≈ 23.6 µM); MIC (S. aureus; [10]): 4 µg/mL (≈ 11.8 µM); MIC (S. aureus; [11]): 4 µg/mL (≈ 11.8 µM); MIC (E. faecalis; [12]): 1 µg/mL (≈ 2.95 µM); MIC (E. faecalis; [13]): 1 µg/mL (≈ 2.95 µM); MIC (A. baumannii): < 4 µg/mL; MIC (E. faecium): 2 µg/mL (≈ 5.91 µM); MIC (S. epidermidis; [14]): 0.5 µg/mL (≈ 1.48 µM); MIC (S. epidermidis; [15]): 0.5 µg/mL (≈ 1.48 µM); MIC (S. epidermidis; [16]): 1 µg/mL (≈ 2.95 µM)
12 | CCCCCCCCCCC1CC(O)=C(C(=O)CCCC)C(=O)O1 (stereo not shown) [Ex. 3, 6-decyl-4-hydroxy-3-pentanoyl-5,6-dihydro-2H-pyran-2-one] | 1.2 to 1.8 µM | 0.4 to 0.6 µg/mL | 13 µM | –
13 | COCCCCCCC1CC(O)=C(C(=O)CC2CC2)C(=O)O1 (stereo not shown) [Ex. 25, 3-(2-cyclopropylacetyl)-4-hydroxy-6-(6-methoxyhexyl)-5,6-dihydro-2H-pyran-2-one] | > 64 µM | > 20 µg/mL | – | –
14 | CCCCCCCCCC1CC(O)=C(C(=O)CC)C(=O)O1 (stereo not shown) [Ex. 5, 4-hydroxy-6-nonyl-3-propionyl-5,6-dihydro-2H-pyran-2-one] | 2.2 µM | 0.65 µg/mL | 50 µM | MIC [1, 17]: 0.7 µg/mL; MIC ([1]; LMG15975, Table 4, read-out: MIC (μg/ml) S. aureus): 0.7 µg/mL; MIC (Bacillus cereus): ≤ 1 µg/mL; MIC (A. baumannii): 32 to 48 µg/mL (≈ 108 to 162 µM)
15 | CCCCCCCCCCC1CC(O)=C(C(C)=O)C(=O)O1 (stereo not shown) [Ex. 11, 3-acetyl-6-decyl-4-hydroxy-5,6-dihydro-2H-pyran-2-one] | 2.7 to 4 µM | 0.8 to 1.2 µg/mL | 40 µM | –
16 | CCCCCCCCCC1CC(O)=C(C(=O)CCCCC)C(=O)O1 (stereo not shown) [Ex. 18, 3-hexanoyl-4-hydroxy-6-nonyl-5,6-dihydro-2H-pyran-2-one] | 1.8 to 2.4 µM | 0.6 to 0.8 µg/mL | 15 µM | MIC [1, 17]: 0.6 to 0.8 µg/mL; MIC (A. baumannii): 4 to 8 µg/mL (≈ 11.8 to 23.6 µM)
17 | CCCCCCCCCC1CC(O)=C(C(=O)CC2CCOCC2)C(=O)O1 (stereo not shown) [Ex. 26, 4-hydroxy-6-nonyl-3-(2-(tetrahydro-2H-pyran-4-yl)acetyl)-5,6-dihydro-2H-pyran-2-one] | 1.4 to 2.7 µM | 0.5 to 1 µg/mL | – | –
18 | CCCCCCCCC[C@H]1CC(O)=C(C(=O)CCC)C(=O)O1 [Ex. 2B, (S)-3-butyryl-4-hydroxy-6-nonyl-5,6-dihydro-2H-pyran-2-one] | 1.3 to 1.9 µM | 0.4 to 0.6 µg/mL | – | CC50 at 48 h (in vitro): 25 µM
19 | N#CCCCCCCCC1CC(O)=C(C(=O)CC2CCOCC2)C(=O)O1 (stereo not shown) [Ex. 27, 8-(4-hydroxy-6-oxo-5-(2-(tetrahydro-2H-pyran-4-yl)acetyl)-3,6-dihydro-2H-pyran-2-yl)octanenitrile] | 5.5 to 14 µM | 2 to 5 µg/mL | – | –
20 | CCCCCCCCC1CC(O)=C(C(=O)CCC)C(=O)O1 (stereo not shown) [Ex. 13, 3-butyryl-4-hydroxy-6-octyl-5,6-dihydro-2H-pyran-2-one] | 2.7 to 5.1 µM | 0.8 to 1.5 µg/mL | 30 µM | MIC [1, 17]: 0.8 to 1.5 µg/mL; MIC (A. baumannii): 24 to 32 µg/mL (≈ 81 to 108 µM)
21 | CCCCCCCCC1CC(O)=C(C(=O)CC)C(=O)O1 (stereo not shown) [Ex. 6, 4-hydroxy-6-octyl-3-propionyl-5,6-dihydro-2H-pyran-2-one] | 4.3 µM | 1.2 µg/mL | 55 µM | –
22 | CCCCCCCCC1CC(O)=C(C(C)=O)C(=O)O1 (stereo not shown) [Ex. 7, 3-acetyl-4-hydroxy-6-octyl-5,6-dihydro-2H-pyran-2-one] | 9.3 µM | 2.5 µg/mL | 65 µM | –
23 | CCCC(=O)C1=C(O)CC(CC(C)CCC=C(C)C)OC1=O (stereo not shown) [Ex. 21, 3-butyryl-6-(2,6-dimethylhept-5-enyl)-4-hydroxy-5,6-dihydro-2H-pyran-2-one] | 6.5 to 9.7 µM | 2 to 3 µg/mL | – | –
24 | CCCCCCCCC[C@@H]1CC(O)=C(C(=O)CCC)C(=O)O1 [Ex. 2A, (R)-3-butyryl-4-hydroxy-6-nonyl-5,6-dihydro-2H-pyran-2-one] | 3.2 to 6.4 µM | 1 to 2 µg/mL | – | CC50 at 48 h (in vitro): 27 µM
25 | CCCCCCCCCCC1CC(O)=C(C(=O)CCC)C(=O)O1 (stereo not shown) [Ex. 12, 3-butyryl-6-decyl-4-hydroxy-5,6-dihydro-2H-pyran-2-one] | 1.9 to 2.6 µM | 0.6 to 0.8 µg/mL | 25 µM | MIC [1, 17]: 0.6 to 0.8 µg/mL; MIC (A. baumannii): 8 to 16 µg/mL (≈ 24.7 to 49.3 µM)
26 | CCCCCCCCCC1CC(O)=C(C(C)=O)C(=O)O1 (stereo not shown) [Ex. 9, 3-acetyl-4-hydroxy-6-nonyl-5,6-dihydro-2H-pyran-2-one] | 2.1 to 4.3 µM | 1.5 to 2.5 µg/mL | 71 µM | MIC [1, 17]: 1.5 to 2.5 µg/mL; MIC (A. baumannii): > 64 µg/mL
27 | CN(Cc1cnc2nc(N)nc(N)c2n1)c1ccc(C(=O)N[C@@H](CCC(=O)O)C(=O)O)cc1 [Methotrexate] | – | – | – | absorption in man (%) ([3]; in vivo): 20%
28 | CCCC(=O)C1=C(O)CC(CCCCCCCOC)OC1=O (stereo not shown) [Ex. 20, 3-butyryl-4-hydroxy-6-(7-methoxyheptyl)-5,6-dihydro-2H-pyran-2-one] | 64 to 96 µM | 20 to 30 µg/mL | 80 µM | –
29 | CCCCCCC/C=C/C1CC(O)=C(C(=O)CCC)C(=O)O1 (stereo not shown) [Ex. 4, (E)-3-butyryl-6-(non-1-en-1-yl)-4-hydroxy-5,6-dihydro-2H-pyran-2-one] | 2.6 to 3.9 µM | 0.8 to 1.2 µg/mL | – | CC50 at 48 h (in vitro): 36 µM
